This is an account of results in patent publication US20260242392A1, “ARYL TRICYCLIC STING AGONISTS AND USE THEREOF” (SHENZHEN GENUINE BIOTECHNOLOGY CO., LTD., priority 2023, published 2026).

Where two headings read alike, the source gives them in different places.

What is called AUC(0-t) is exposure summed from dosing to a finite time, without extrapolation to infinity. The low end stands for less exposure, the high end for more exposure. The half-life is the time needed for the level to fall by half in the phase considered. A higher half-life goes with slow loss. Usually Cmax stands for the maximum level reached in the sampled fluid or tissue. The term EC50 denotes the concentration giving half of the maximal effect.

A short description of data set [1]: Pharmacokinetic (PK) study in ICR mice, IV and PO. To be noted: for AUC(0-t) / Vd / clearance / half-life / Cmax / bioavailability: ICR, mouse, plasma; for oral availability: oral administration at 5 mg/kg.
Procedure: (§1) The doses for IV and PO were 2 mg/kg and 5 mg/kg, respectively. Blood was collected at different time points after IV and PO administration and placed in heparinized tubes. Plasma was separated and frozen in a −20° C. refrigerator. Plasma was processed and then analyzed by LCMS/MS. Pharmacokinetic parameters of drug administration were calculated using a non-compartmental model in WinNonlin 8.2 software.
Data set [2] has as its system mouse colorectal cancer CT26 cell line. The experiment in a line: Subcutaneous tumor model of female Balb/c mice transplanted with mouse colorectal cancer CT26 cell line. The class given is in vivo. To be noted: separate CT26 model cohort, 20 mg/kg. The method, then:
Pharmacodynamic Evaluation of Test Compounds in a Subcutaneous Tumor Model of Female Balb/c Mice Transplanted with Mouse Colorectal Cancer CT26 Cell Line
CT-26 tumor cells were cultured in a suitable culture medium. Cells in the exponential growth phase were collected and subcutaneously inoculated into the right back of experimental mice. Tumor growth was observed regularly after inoculation. When the tumor reached an average volume of approximately 100 mm^3, mice were randomly grouped based on tumor size and body weight for administration. The day of grouping was defined as Day 0. Test compounds were administered orally once weekly for 4 times. The efficacy was evaluated by calculating the tumor growth inhibition (TGI) based on the tumor volume, and the safety was evaluated based on the changes in animal body weight and death. […] All test compounds were well-tolerated.

The target in data set [3] is human STING protein (Homo sapiens, UniProt Q86WV6). As to conditions: cited from earlier work.
Chain of human STING protein (Q86WV6 whole entry): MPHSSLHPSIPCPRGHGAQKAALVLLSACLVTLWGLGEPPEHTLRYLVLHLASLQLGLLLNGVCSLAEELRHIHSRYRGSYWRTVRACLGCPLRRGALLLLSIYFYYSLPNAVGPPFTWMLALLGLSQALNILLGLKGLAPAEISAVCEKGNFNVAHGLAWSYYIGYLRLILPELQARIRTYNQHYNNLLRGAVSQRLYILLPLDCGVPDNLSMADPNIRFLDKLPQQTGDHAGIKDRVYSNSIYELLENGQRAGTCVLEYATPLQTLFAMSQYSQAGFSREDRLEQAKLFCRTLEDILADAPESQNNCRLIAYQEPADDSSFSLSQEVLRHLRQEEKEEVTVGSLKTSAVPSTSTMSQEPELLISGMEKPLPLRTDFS
Data set [4] has as its system human non-small cell lung cancer. As to conditions: in combination with standard chemotherapy; cited from earlier work.
For data set [5] the following is noted: mouse; for oral availability: ICR, in vivo, 5 mg/kg; for clearance in vivo compared to MAS-2: po.
Procedure: as §1
Data set [6] is described as follows: in vivo. To be noted: ICR, mouse.
Procedure: as §1
Data set [7] addresses T1, Sting-HAQ (Homo sapiens, UniProt Q86WV6, G230A/H232R/R293Q/R71H).
T1 construct: host or cells: HEK293-HAQ Luc reporter cell line
The experiment in a line: HEK293-HAQ Luc reporter gene assay (Steady-Glo luciferase). The class given is cell-based. As to conditions: 24 h incubation; read-out: HEK293-HAQ Luc Report Assay (24 h) EC50. The method, then: Test Principle: The HEK293-HAQ Luc reporter cell line utilizes the chemiluminescent reaction property of luciferase binding to its substrate beetle luciferin. The regulatory elements of the Sting-HAQ gene transcription are cloned upstream/downstream of the firefly luciferase gene to construct a luciferase recombinant plasmid. The recombinant plasmid is then transfected into HEK293 cells. After treatment with compounds, the cells are lysed, and the luciferase activity is measured using the Steady-Glo® detection system (Cat #E2550) manufactured by Promega Corporation. The effect of compounds on the Sting-HAQ regulatory elements is determined based on the level of luciferase activity. The Steady Glo® Luciferase Assay System enables high-throughput evaluation of the degree of activation of reporter cell lines by compounds through the activity of luciferase in mammalian cells, and provides long-term stable luminescence when used with reporter cell lines. The detection system can sustain a signal half-life of more than 5 hours in the test cell culture medium, enabling uniform measurement without sample pretreatment.
Test Method: Complete medium (DMEM+10% FBS+1% P/S) was prepared. The Hek293-HAQ Luc reporter cell line was resuscitated and passaged twice. Cells in logarithmic growth phase were collected by centrifugation, counted, and resuspended to an appropriate concentration. The cell suspension was seeded into a 96-well plate at a density of 20000 cells/well, with 100 µL of the cell suspension added per well. Test compounds were prepared into stock solutions with DMSO, and serially diluted 3-fold with DMSO starting from the highest concentration of 100 mM to obtain 9 concentration gradients. The test compounds were diluted 47.62-fold with culture medium, and 5 μL of each dilution was added to the 96-well plate containing 100 μL of cells. To Min control wells were added 5 μL of DMSO-cell culture medium mixture (with a final DMSO concentration of 0.1%), while Max control wells received 5 μL of a positive reference compound. The plate was incubated at 37° C. in an incubator with 5% carbon dioxide and relative humidity above 90% for 24 h. Subsequently, 75 μL/well of […] was added to terminate the reaction. After shaking at 305 rpm for 10 min, the plates were detected on Envision. The […] value RLU of each well was read, and the activation rate was calculated according to the formula: Activation %=(Sample−Ave_L)/(Ave_H−Ave_L)×100, where Ave_L: RLU Min (0.1% DMSO), Ave_H: RLU Max (positive reference compound). The activation rate, Activation % (Y), corresponding to each concentration (X), was entered in EXCEL. The half-maximal effective concentration EC50 value of each compound was calculated according to the built-in four-parameter fitting formula Y=Bottom+(Top−Bottom)/(1+10^((LogEC50−X)*HillSlope)) using the XLfit plug-in.
Background: In a reporter assay the amount or activity of a reporter protein is the signal.

Where [8] appears, read: mouse PK, injection 2 mg/kg and oral 5 mg/kg.

T1 sequence (Q86WV6 whole entry R71H/G230A/H232R/R293Q): as the sequence (Q86WV6 whole entry) above, with R71H, G230A, H232R, R293Q counted along it

As for `CC[C@@H](CC(=O)c1cc2c(cc(OC)c3ocnc32)s1)C(=O)O` [Compound 51], in data set [1] (iv, 2 mg/kg), the AUC(0-t) is 3240 ng·h/mL, the Vd is 1.28 L/kg, the clearance was determined as 10.2 mL/min/kg and the half-life is 4.36 h. For the same compound, in data set [1] (po, 5 mg/kg), the AUC(0-t) amounted to 8550 ng·h/mL, the Cmax is 4550 ng/mL, the bioavailability stood at 105% and the half-life was 3.1 h. In data set [1] (setting [8]), the “clearance in vivo compared to MAS-2” value is on record as “lower clearance” and the “exposure in vivo compared to MAS-2” value is reported as “higher exposure”. This compound had an oral availability in data set [1] (mouse PK) of 100%. Besides, the “tumor growth inhibition (TGI)” value in data set [2] was 99%.
In the case of `CC[C@@H](CC(=O)c1cc2c(cc(OC)c3oc(C)nc32)s1)C(=O)O` [Compound 53], the “tumor growth inhibition (TGI)” value in data set [2] is given as 101%.
Regarding `Cc1ccc2c(=O)c3cccc(CC(=O)O)c3oc2c1C` [DMXAA], the “activation of human STING protein” value in data set [3] is recorded as “fails to activate”. The clinical efficacy entry in data set [4] was “failed to show significant efficacy”.
Consider `COc1cc2sc(C(=O)CC(C)C(=O)O)cc2c2ncoc12` (stereo not shown) [Example 12], for which, in data set [5], the oral availability is on record as 100% and the “clearance in vivo compared to MAS-2” value was “lower clearance”. In data set [6] (iv, 2 mg/kg), the AUC(0-t) came to 1570 ng·h/mL, the Vd was determined as 0.49 L/kg, the clearance is 21.2 mL/min/kg and the half-life was 1.5 h. Moreover, in data set [6] (po, 5 mg/kg), the AUC(0-t) turned out to be 4060 ng·h/mL, the Cmax stood at 6020 ng/mL, the bioavailability was found to be 104% and the half-life was 2 h.
In data set [1] (iv, 2 mg/kg), `COc1cc2sc(C(=O)C[C@H](C)C(=O)O)cc2c2cc(C)oc12` [Example 32] had an AUC(0-t) of 3700 ng·h/mL, a Vd of 0.252 L/kg, a clearance of 8.98 mL/min/kg and a half-life of 0.821 h. Also, in data set [1] (po, 5 mg/kg), the AUC(0-t) came out at 3450 ng·h/mL, the concentration peaked (Cmax) at 5360 ng/mL, the bioavailability was determined as 37.4% and the half-life is 0.925 h.
For the compound `COc1cc2sc(C(=O)C[C@H](C)C(=O)O)cc2c2ncoc12` [Example 46, (S)-4-(4-methoxythieno[2′,3′:5,6]benzo[1,2-d]oxazol-7-yl)-2-methyl-4-oxobutanoic acid], in data set [5], the oral availability was 64.6% and the “clearance in vivo compared to MAS-2” value was “lower clearance”. Moreover, in data set [6] (iv, 2 mg/kg), the AUC(0-t) came to 3540 ng·h/mL, the Vd was 0.32 L/kg, the clearance amounted to 9.38 mL/min/kg and the half-life was 1.72 h. Also, in data set [6] (po, 5 mg/kg), the AUC(0-t) was found to be 5710 ng·h/mL, the highest level (Cmax) was 6480 ng/mL, the bioavailability is 64.6% and the half-life was 1.61 h.
As for `COc1cc2sc(C(=O)C[C@H](C)C(=O)O)cc2c2cc(F)oc12` [Example 62, (S)-4-(2-fluoro-4-methoxythieno[3,2-e]benzofuran-7-yl)-2-methyl-4-oxobutanoic acid], in data set [1] (iv, 2 mg/kg), the AUC(0-t) amounted to 4300 ng·h/mL, the Vd is 0.49 L/kg, the clearance came to 7.56 mL/min/kg and the half-life was 2.68 h. Further, in data set [1] (po, 5 mg/kg), the AUC(0-t) turned out to be 10200 ng·h/mL, the peak concentration (Cmax) was 10100 ng/mL, the bioavailability came to 92.9% and the half-life is 3.05 h.
Turning to `COc1cc2cc(C(=O)CCC(=O)O)sc2cc1OC` [MAS-2, reference compound], the EC50 in data set [7] worked out at 2590 nM. In data set [1] (iv, 2 mg/kg), the AUC(0-t) worked out at 1010 ng·h/mL, the Vd came to 0.343 L/kg, the clearance amounted to 33 mL/min/kg and the half-life is 0.431 h. In addition, in data set [1] (po, 5 mg/kg), the area under the curve AUC(0-t) was determined as 1530 ng·h/mL, the Cmax is 2810 ng/mL, the bioavailability worked out at 61.2% and the half-life is 1.63 h. The same compound displayed an oral availability in data set [1] (mouse PK) of 61.23%.
